The results in this text go back to ChEMBL document CHEMBL5537185, “Discovery of the First-in-Class RORγ Covalent Inhibitors for Treatment of Castration-Resistant Prostate Cancer” (J Med Chem, 2024).

A word on the IC50: it is the concentration needed to halve the response being measured. As a reminder, the half-life is how long it takes for the measured level to halve. Low values mean fast loss, high ones slow loss.

Active and inactive are the calls of the source. No cut-off for these calls is given here.

Data set [1] deals with CWR22R. The experiment in a line: Downregulation of KLK2 mRNA expression in human 22Rv1 cells at 1.25 to 5 uM incubated for 48 hrs by qRT-PCR analysis. It counts as functional, cell-based. The conditions noted are these: dose 1.25-5 µM.
Data set [2] can be described thus: Toxicity in NOD/SCID mouse assessed as tolerability at 5 to 10 mg/kg, ip administered five times a week for 2 weeks and measured two times per week. It counts as organism-based. Conditions: in vivo, 336 h, dose 5-10 mg/kg.
The target of data set [3] is T1, Nuclear receptor ROR-gamma (Homo sapiens) (UniProt P51449).
T1 sequence (whole entry): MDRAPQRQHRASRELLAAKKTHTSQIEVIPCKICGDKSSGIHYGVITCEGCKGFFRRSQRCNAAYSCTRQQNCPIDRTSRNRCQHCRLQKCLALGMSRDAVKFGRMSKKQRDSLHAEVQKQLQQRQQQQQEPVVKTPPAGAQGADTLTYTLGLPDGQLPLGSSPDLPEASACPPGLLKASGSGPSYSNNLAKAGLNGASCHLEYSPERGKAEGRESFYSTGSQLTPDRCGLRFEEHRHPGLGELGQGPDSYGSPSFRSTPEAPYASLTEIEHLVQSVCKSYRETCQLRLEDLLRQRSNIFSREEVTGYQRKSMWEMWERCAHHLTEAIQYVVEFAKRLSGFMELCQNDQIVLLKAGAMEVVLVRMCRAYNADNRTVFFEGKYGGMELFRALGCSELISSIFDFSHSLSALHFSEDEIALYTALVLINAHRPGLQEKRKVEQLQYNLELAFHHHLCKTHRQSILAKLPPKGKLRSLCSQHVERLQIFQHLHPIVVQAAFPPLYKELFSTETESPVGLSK
The experiment in a line: Covalent binding affinity to RORgamma (unknown origin) expressed in Escherichia coli assessed as covalent adduct formation incubated for 4 hrs by mass spectrometric analysis.

Data set [4] has as its system LNCaP C4-2B. Description: Antiproliferative activity against human LNCaP C4-2B cells incubated for 4 days by CCK8 assay. The conditions noted are these: 96 h. In general terms: Tetrazolium assays rely on reduction of a dye to a coloured formazan, in cell work by metabolically active cells.
The subject of data set [5] is CWR22R. Description: Induction of apoptosis in human 22Rv1 cells assessed as increase in caspase-7 activity at 1.25 to 5 uM by Western blot analysis. It counts as functional, cell-based. The conditions noted are these: dose 1.25-5 µM. A general note: A western blot detects proteins with antibodies after separation by electrophoresis.
For data set [6], the system named is CWR22R. The experiment in a line: Antitumor activity against human 22Rv1 cells xenografted in NOD/SCID mouse assessed as tumor growth inhibition at 5 mg/kg, ip administered five times a week for 2 weeks and measured two times per week. It counts as functional. Conditions: 22Rv1, 336 h, read-out: TGI. A general note: Xenograft models place foreign cells or tissue in a host animal.

In data set [7] the test system is CWR22R. Description: Downregulation of AR expression in human 22Rv1 cells incubated for 24 to 72 hrs by Western blot analysis. It counts as functional, cell-based. Conditions: dose 1.25-5 µM, time 24-72 hrs.
For data set [8], the system named is LNCaP C4-2B. Description: Induction of apoptosis in human LNCaP C4-2B cells assessed as increase in caspase-3 activity at 1.25 to 5 uM by Western blot analysis. It counts as functional, cell-based. Conditions: dose 1.25-5 µM.
Data set [9] is described as follows: Half life in ICR mouse at 10 mg/kg, po measured upto 24 hrs by LC-MS/MS analysis. It counts as ADME, organism-based. The conditions noted are these: in vivo.
The subject of data set [10] is CWR22R. The experiment in a line: Antitumor activity against human 22Rv1 cells xenografted in NOD/SCID mouse assessed as tumor growth inhibition at 10 mg/kg, ip administered five times a week for 2 weeks and measured two times per week. It counts as functional. Conditions: 22Rv1, 336 h, read-out: TGI.
Data set [11] deals with LNCaP C4-2B. Description: Downregulation of AR expression in human LNCaP C4-2B cells incubated for 24 to 72 hrs by Western blot analysis. It counts as functional, cell-based. Conditions: dose 1.25-5 µM, time 24-72 hrs.
Data set [12] concerns CWR22R. Description: Downregulation of AR-V7 expression in human 22Rv1 cells at 1.25 to 5 uM by Western blot analysis. It counts as functional, cell-based. The conditions noted are these: dose 1.25-5 µM, time 24-72 hrs, TDE = time-dependent effect.

For the molecule `C=CC(=O)Nc1ccccc1-c1ccc(NC(=O)Cc2ccc(S(=O)(=O)CC)cc2)cc1Cl`, the result (with CWR22R [1]; in [3]; in the data set with CWR22R [5]; in the data set on LNCaP C4-2B [8]) was Active. Also, the Activity result in data set [2] is “Non-Toxic”; with CWR22R [7] it was “Dose-Dependent Effect”; in the data set on LNCaP C4-2B [11], “Dose-Dependent Effect”; in the data set on CWR22R [12] it was “Tde”. The IC50 in the data set with LNCaP C4-2B [4] was found to be 470 nM. Also, the inhibition in vivo at 5 mg/kg in the data set with CWR22R [6] worked out at 41.9%. Besides, in [9], the half-life was 36.6 min. Moreover, in the data set with CWR22R [10], the inhibition in vivo at 10 mg/kg worked out at 62.6%.
